Data published in US20250090699A1, “FAP TARGETING CYCLIC PEPTIDES AND CONJUGATES THEREOF” (Novartis AG, priority 2023, published 2025).
Structures can show the parent of a compound that is named as a salt. Non-standard residues stand in square brackets, D forms with d. Residues, ends and D or L forms follow the SMILES beside them. Trp(7-Cl) = N[C@@H](Cc1c[nH]c2c(Cl)cccc12)C(=O)O; Trp(6-OH) = N[C@@H](Cc1c[nH]c2cc(O)ccc12)C(=O)O; Trp(7-F) = N[C@@H](Cc1c[nH]c2c(F)cccc12)C(=O)O; Trp(7-aza) = N[C@@H](Cc1c[nH]c2ncccc12)C(=O)O; Phe(4-CH2NH2) = NCc1ccc(C[C@H](N)C(=O)O)cc1; NMeF = CN[C@@H](Cc1ccccc1)C(=O)O; Ahp(2) = CCCCC[C@H](N)C(=O)O; AEEA = NCCOCCOCC(=O)O

What was measured:
[1] = target: T1, human FAP (Homo sapiens, UniProt Q12884); assay: Enzymatic FAP competition assay (Z-Gly-Pro-AMC fluorescence), human FAP; type: biochemical; conditions: read-out: h. FAP, Enz., IC50
T1 construct: the biotinylated His, Avi tag, human FAP (26-760, FAP-H82Q6); His; Avi tag (biotinylated); purchased AcroBiosystems FAP-H82Q6
T1 sequence (Q12884 26-760): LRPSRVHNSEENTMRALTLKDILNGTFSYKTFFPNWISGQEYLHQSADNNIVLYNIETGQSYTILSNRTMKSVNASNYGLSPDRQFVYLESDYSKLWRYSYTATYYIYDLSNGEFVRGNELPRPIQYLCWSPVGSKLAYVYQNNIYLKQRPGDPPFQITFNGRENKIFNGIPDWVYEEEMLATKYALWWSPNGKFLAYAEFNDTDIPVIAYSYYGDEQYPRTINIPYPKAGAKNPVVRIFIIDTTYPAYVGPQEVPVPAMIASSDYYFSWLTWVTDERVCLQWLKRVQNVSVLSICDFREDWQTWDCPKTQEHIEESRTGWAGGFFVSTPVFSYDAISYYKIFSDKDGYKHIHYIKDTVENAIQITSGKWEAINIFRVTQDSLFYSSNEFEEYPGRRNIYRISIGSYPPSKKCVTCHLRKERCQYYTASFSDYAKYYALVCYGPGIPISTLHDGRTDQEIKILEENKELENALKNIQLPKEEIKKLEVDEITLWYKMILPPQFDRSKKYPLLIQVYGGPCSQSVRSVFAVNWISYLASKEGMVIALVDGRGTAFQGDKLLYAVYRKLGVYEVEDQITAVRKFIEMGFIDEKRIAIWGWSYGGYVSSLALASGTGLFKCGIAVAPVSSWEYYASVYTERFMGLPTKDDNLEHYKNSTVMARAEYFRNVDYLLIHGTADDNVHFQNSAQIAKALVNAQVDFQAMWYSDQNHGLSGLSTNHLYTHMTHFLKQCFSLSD
Experimental: (§1) Peptide potencies (IC50) to inhibit the FAP enzymatic activity were determined using a fluorescence-based assay towards the biotinylated His, Avi tag, human FAP (26-760, FAP-H82Q6) and the biotinylated His, Avi tag, mouse FAP (26-761, FAP-M82Q5). Standard assay conditions consisted of 20 μL total volume in white 384-well plates (Greiner, Ref. 784075), in 50 mM phosphate buffer pH 7.5 containing 150 mM NaCl, 0.05% Tween20 and 1% final DMSO. Tested peptides at 14 different concentrations up to 1 μM were added to 0.01 nM human or mouse FAP. The peptides were incubated for 24 hours together with the protein before adding the substrate 50 μM Z-Gly-Pro-AMC (I-1145 from Bachem). Samples were then incubated at 22-24° C. for 4 h before reading the fluorescence at excitation wavelength of 380 nm and emission wavelength of 460 nm using the Tecan Infinite® M1000 PRO. The high control (100% activity) was not containing any peptide, and an internal potent peptide was added at 10 μM concentration for the low control (100% inhibition). IC50 values were calculated by curve fitting using an in-house developed software (Novartis Helios software application) using the method described by Fomenko et al., 2006 (regression algorithms for nonlinear dose-response curve fitting). Following normalization of activity values for the wells to % inhibition (% inhibition=[(high control-sample)/(high control-low control)]x 100). IC50 fitting was carried out from the duplicated points.

[2] = target: T2, mouse FAP (Mus musculus, UniProt P97321); assay: Surface plasmon resonance (SPR) for peptide affinity, mouse FAP; type: binding
T2 construct: biotinylated His, Avi tag, mouse FAP (26-761, FAP-M82Q5); His; Avi tag (biotinylated); purchased AcroBiosystems FAP-M82Q5
T2 sequence (P97321 26-761): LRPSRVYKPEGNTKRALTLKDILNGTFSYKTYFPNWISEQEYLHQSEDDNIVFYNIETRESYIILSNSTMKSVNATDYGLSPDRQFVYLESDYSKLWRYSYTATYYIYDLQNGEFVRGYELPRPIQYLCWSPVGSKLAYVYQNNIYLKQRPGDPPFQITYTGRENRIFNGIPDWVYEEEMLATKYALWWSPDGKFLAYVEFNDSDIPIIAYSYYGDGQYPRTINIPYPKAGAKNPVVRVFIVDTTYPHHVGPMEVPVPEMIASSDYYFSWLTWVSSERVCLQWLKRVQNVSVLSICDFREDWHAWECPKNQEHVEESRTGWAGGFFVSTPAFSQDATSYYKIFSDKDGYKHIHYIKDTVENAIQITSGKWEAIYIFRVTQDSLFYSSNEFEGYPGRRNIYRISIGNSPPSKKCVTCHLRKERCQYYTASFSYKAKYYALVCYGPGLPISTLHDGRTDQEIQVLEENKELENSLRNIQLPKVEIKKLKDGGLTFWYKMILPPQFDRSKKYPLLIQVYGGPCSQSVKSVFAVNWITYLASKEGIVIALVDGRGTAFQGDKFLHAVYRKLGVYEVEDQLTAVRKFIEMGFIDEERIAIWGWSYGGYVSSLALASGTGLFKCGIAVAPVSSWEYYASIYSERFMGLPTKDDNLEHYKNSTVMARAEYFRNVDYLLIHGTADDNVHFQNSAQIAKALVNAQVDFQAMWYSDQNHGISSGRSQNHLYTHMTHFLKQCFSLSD
Experimental: Peptide affinities (KD) were determined by SPR using a Biacore™ 8K device (Cytiva) towards the following proteins: biotinylated His, Avi tag, human FAP (26-760, FAP-H82Q6), biotinylated His, Avi tag, mouse FAP (26-761, FAP-M82Q5), His tag, human DPP4 (34-766, DP4-H82E3), all purchased from AcroBiosystems and His tag, mouse DPP4 (29-760, 954-SE) from R&D Systems. The FAP proteins and their homologous were diluted to a concentration of 2 μg/mL into acetate buffer pH 5.5, then immobilized onto a CM5 sensorchip (Cytiva, BR-1005-30) to reach a response around 2000 R U. The running buffer HBS-EP+pH 7.6 (20× from Teknova CAT. No: H8022) contained 10 mM HEPES pH 7.6, 150 mM NaCl, 3 mM EDTA, 0.05% Tween20 and 2% DMSO. Experiments were carried out at 25° C. using a flow rate of 30 μL/min. Compounds were tested in single cycle kinetic mode at 8 different concentrations. Curve fitting was performed using the Biacore™ 8K evaluation software. The sensorgrams were fitted by applying a 1:1 binding model to calculate kinetic rate constants and equilibrium dissociation constants (KD).
For this assay, the setup had the same conditions (flow rate, running buffer, peptide dilution) as described above for the CM5 method. The oligo CAP reagent obtained in the CAPture Kit (Ref. 28920234) was 1/5 diluted into running buffer and used with a contact time of 300 s at a flow rate of 2 μL/min. The human and mouse FAP constructs described above were used (from AcroBiosystems or produced in house). The FAP proteins were diluted to a concentration of 2 μg/mL into acetate pH 5.5, 0.05% Tween20 and used with a contact time of 600 s at a flow rate of 10 μL/min. The peptides were tested with an association time of 280 s followed by a dissociation time of 3000 s at a flow rate of 30 μL/min. The regeneration was done using the regeneration solution (8 M guanidine-HCl, 1 M NaOH) as obtained with a contact time of 270 s at a flow rate of 10 μL/min. […] The compounds marked with an asterisk were tested against human and mouse DDP4.

[3] = target: T2, mouse FAP; assay: Enzymatic FAP competition assay (Z-Gly-Pro-AMC fluorescence), mouse FAP; type: biochemical; conditions: read-out: m. FAP, Enz., IC50
Experimental: as §1

| SMILES | IC50 [1] [nM] | Kd [2] [nM] | IC50 [3] [nM] |
| --- | --- | --- | --- |
| CCCCC[C@@H]1NC(=O)[C@H](Cc2ccc(O)cc2)NC(=O)[C@H](Cc2ccccc2)N(C)C(=O)[C@H](CCC(=O)O)NC(=O)[C@H](CCCCN)NC(=O)[C@H]2CCCN2C(=O)[C@H](CC(=O)O)NC(=O)[C@H](Cc2ccc(O)cc2)NC(=O)CNC(=O)[C@H](Cc2c[nH]c3ccccc23)NC1=O [Example A21, Lys-Glu-NMePhe-Tyr-Ahp-Trp-Gly-Tyr-Asp-D-Pro, TFA salt] (cyclo([Ahp(2)]WGYD[dP]KE[NMeF]Y)) | 5.7 | 15 | 14 |
| CCCCC[C@@H]1NC(=O)[C@H](Cc2ccc(O)cc2)NC(=O)[C@H](Cc2ccccc2)NC(=O)CNC(=O)[C@H](CCCCN)NC(=O)[C@H]2CCCN2C(=O)[C@H](CC(=O)O)NC(=O)[C@H](Cc2ccc(O)cc2)NC(=O)CNC(=O)[C@H](Cc2c[nH]c3ccccc23)NC1=O [Example A22, Lys-Gly-Phe-Tyr-Ahp-Trp-Gly-Tyr-Asp-D-Pro, TFA salt] (cyclo([Ahp(2)]WGYD[dP]KGFY)) | 0.33 | 0.87 | 0.67 |
| CCCCC[C@@H]1NC(=O)[C@H](Cc2ccc(O)cc2)NC(=O)[C@H](Cc2ccccc2)N(C)C(=O)CNC(=O)[C@H](CCCCN)NC(=O)[C@H]2CCCN2C(=O)[C@H](CC(=O)O)NC(=O)[C@H](Cc2ccc(O)cc2)NC(=O)CNC(=O)[C@H](Cc2c[nH]c3c(F)cccc23)NC1=O [Example A23, Lys-Gly-NMePhe-Tyr-Ahp-W(7F)-Gly-Tyr-Asp-D-Pro, TFA salt] (cyclo([Ahp(2)][Trp(7-F)]GYD[dP]KG[NMeF]Y)) | 0.111 | 0.45 | 0.48 |
| CCCCC[C@@H]1NC(=O)[C@H](Cc2ccc(O)cc2)NC(=O)[C@H](Cc2ccccc2)N(C)C(=O)CNC(=O)[C@H](CCCCN)NC(=O)[C@H]2CCCN2C(=O)[C@H](CC(=O)O)NC(=O)[C@H](Cc2ccc(O)cc2)NC(=O)CNC(=O)[C@H](Cc2c[nH]c3cc(O)ccc23)NC1=O [Example A24, Lys-Gly-NMePhe-Tyr-Ahp-W(6OH)-Gly-Tyr-Asp-D-Pro, TFA salt] (cyclo([Ahp(2)][Trp(6-OH)]GYD[dP]KG[NMeF]Y)) | 0.37 | 0.85 | 1.3 |
| CCCCC[C@@H]1NC(=O)[C@H](Cc2ccc(O)cc2)NC(=O)[C@H](Cc2ccccc2)N(C)C(=O)CNC(=O)[C@H](CCCCN)NC(=O)[C@H]2CCCN2C(=O)[C@H](CC(=O)O)NC(=O)[C@H](Cc2ccc(O)cc2)NC(=O)CNC(=O)[C@H](Cc2c[nH]c3c(Cl)cccc23)NC1=O [Example A25, Lys-Gly-NMePhe-Tyr-Ahp-W(7Cl)-Gly-Tyr-Asp-D-Pro, TFA salt] (cyclo([Ahp(2)][Trp(7-Cl)]GYD[dP]KG[NMeF]Y)) | 0.209 | 0.47 | 0.86 |
| CCCCC[C@@H]1NC(=O)[C@H](Cc2ccc(O)cc2)NC(=O)[C@H](Cc2ccccc2)N(C)C(=O)CNC(=O)[C@H](CCCCN)NC(=O)[C@H]2CCCN2C(=O)[C@H](CC(=O)O)NC(=O)[C@H](Cc2ccc(O)cc2)NC(=O)CNC(=O)[C@H](Cc2c[nH]c3ncccc23)NC1=O [Example A26, 2-((3S,9S,12S,15S,18S,24S,27S,32aR)-18-((1H-pyrrolo[2,3-b]pyridin-3-yl)methyl)-3-(4-aminobutyl)-9-benzyl-12,24-bis(4-hydroxybenzyl)-8-methyl-1,4,7,10,13,16,19,22,25,28-decaoxo-15-pentyldotriacontahydropyrrolo[1,2-a][1,4,7,10,13,16,19,22,25,28]decaazacyclotriacontin-27-yl)acetic acid TFA salt] (cyclo([Ahp(2)][Trp(7-aza)]GYD[dP]KG[NMeF]Y)) | 0.47 | 2.7 | 1.6 |
| CCCCC[C@@H]1NC(=O)[C@H](Cc2ccc(CNC(=O)COCCOCCN)cc2)NC(=O)[C@H](Cc2ccccc2)N(C)C(=O)CNC(=O)CNC(=O)[C@H]2CCCN2C(=O)[C@H](CC(=O)O)NC(=O)[C@H](Cc2ccc(O)cc2)NC(=O)CNC(=O)[C@H](Cc2c[nH]c3ccccc23)NC1=O [Example A27, Gly-Gly-NMePhe-F(4amPEG2NH2)-Ahp-Trp-Gly-Tyr-Asp-D-Pro] (cyclo([Ahp(2)]WGYD[dP]GG[NMeF][Phe(4-CH2NH2)](AEEA))) | 0.045 | 0.219 | 0.138 |
| CCCCC[C@@H]1NC(=O)[C@H](Cc2ccc(CNC(C)=O)cc2)NC(=O)[C@H](Cc2ccccc2)N(C)C(=O)CNC(=O)CNC(=O)[C@H]2CCCN2C(=O)[C@H](CC(=O)O)NC(=O)[C@H](Cc2ccc(O)cc2)NC(=O)CNC(=O)[C@H](Cc2c[nH]c3ccccc23)NC1=O [Example A28, Gly-Gly-NMePhe-F(4AmAc)-Ahp-Trp-Gly-Tyr-Asp-D-Pro] (cyclo(GG[NMeF][Phe(4-CH2NH2)](Ac)[Ahp(2)]WGYD[dP])) | 0.063 | 0.52 | 0.33 |
